{
  "source": "patent US20140119985A1",
  "about": "“Photodynamic Control of Microbial Growth on Surfaces” (ORTNER CLEANROOM ENGINEERING GMBH, priority 2010, published 2014)",
  "key": {"Klebsiella pneumoniae": {"system": "Klebsiella pneumoniae", "settings": "LED 623 nm", "method": "(§1) Typically, 3 μl of a growing cell culture having a titer of 7×10^7 cfu/ml were used in contact assays, whereas 50 μl were employed in plating assays. In some assays, the cell cultures were employed in a dilution of 10^−1, 10^−2, 10^−3, 10^−4, and 10^−5, respectively.\nFor contact assays, pieces of the textile fabric having a defined size of 1 cm×1 cm were employed.\n(§2) In contact assays, the distance between the radiation source and the piece of textile fabric was in a range between 10 cm and 60 cm.\nIn brief, the contact assays were performed as follows: Pieces of a textile fabric (ION-NOSTAT VI.2) having a defined size (1×1 cm) were immersed for 3 h in an aqueous solution of reactive dye, such as methylene blue (100 μg/ml each). After complete drying of the textile pieces, 3 μl of a growing cell culture were added to the surface of the textile pieces. The pieces were irradiated with appropriate radiation (light) for a given period of time. Then, the textile pieces were contacted with agar plates; and the plates were incubated at 37° C. for 24 h.\nThe contact assay was performed as described in Example 1 using an aqueous solution of diemethyl methylene blue (DMMB) and new methylene blue (NMB), respectively (100 μg/ml each) as well as a combination thereof. Staphylococcus aureus and Klebsiella pneumoniae were employed as test organisms. Irradiation was accomplished by means of a LED (High Power Alustar 3 W 10° LED×ON Rot, from Conrad, Hirschau, Germany) at a wavelength of 623 nm. The distance between the LED and the textile pieces was 50 cm."}, "Staphylococcus aureus [1]": {"system": "Staphylococcus aureus", "test": "Contact assay on dye-treated textile pieces", "type": "cell-based", "settings": "for cell growth: irradiation 1 min, distance 50 cm, about 10^4 cfu; for cfu calculated per ml cell culture: plates incubated 24 h; for number of colonies upon irradiation: distance 30 cm"}, "[2]": {"system": "Stenotrophomonas maltophilia", "test": "Contact assay on dye-treated textile pieces", "type": "cell-based", "settings": "for cfu calculated per ml cell culture: plates incubated 48 h", "method": "as §1\n(§3) The textile fabric employed was a clean room textile, in particular ION-NOSTAT VI.2 (Dastex Reinraumzubehör, Muggensturm, Germany). For contact assays, pieces of the textile fabric having a defined size of 1 cm×1 cm were employed.\nas §2\n(§4) After complete drying of the textile pieces, 3 μl of a growing cell culture were added to the surface of the textile pieces. The pieces were irradiated with appropriate radiation (light) for a given period of time. Then, the textile pieces were contacted with agar plates; and the plates were incubated at 37° C. for 24 h."}, "Candida albicans [3]": {"system": "Candida albicans", "test": "Contact assay on dye-treated textile pieces", "type": "cell-based", "settings": "irradiation 1 min, 2 min, 3 min, laser 15 mW, 532 nm", "method": "as §1, §3, §2, §4"}, "Staphylococcus aureus [4]": {"system": "Staphylococcus aureus", "settings": "for colony forming units obtained: incubation with dye (3-5 min) without irradiation; for colonies detected: irradiation 3 min"}, "Candida albicans [5]": {"system": "Candida albicans", "settings": "dilution 10^−4, incubation period two days longer as compared to control", "method": "as §1\n(§5) Methylene blue (MB), dimethyl methylene blue (DMMB), new metylene blue (NMB), and toluidine blue (TB) were provided as solutions having a dye concentration of 100 μg/ml. 50 μl of either solution were used for plating assays.\n(§6) In brief, the plating assays were performed as follows: In a well of a (96 well) microtiter plate 50 μl of a growing cell culture were mixed with aqueous solution of reactive dye, such as methylene blue (100 μg/ml each). The samples were irradiated with appropriate radiation (light) for a given period of time. The samples (100 μl) were plated on agar plates. The plates were incubated at 37° C. for 24 h."}, "[6]": {"system": "Stenotrophomonas maltophilia", "settings": "dilution 10^−5", "method": "as §1, §5, §6"}, "[7]": {"settings": "1 × pre-irradiation (3 min) of textile before contact with cells"}, "[8]": {"settings": "2 × pre-irradiation (3 min each, 90 min between) of textile before contact with cells"}, "[9]": {"settings": "Control (dye, no irrad.), dilution 10^−5"}, "[10]": {"settings": "Irradiation for 3 min, dilution 10^−5"}, "[11]": {"settings": "irradiation 3 min, laser 15 mW, 532 nm"}, "[12]": {"settings": "textile immersed in dye 100 μg/ml, irradiation 3 min, laser 15 mW, 532 nm"}, "[13]": {"settings": "textile incubated with dye 100 μg/ml, no irradiation"}, "[14]": {"settings": "incubation with dye, mercury lamp 515-560 nm"}, "[15]": {"settings": "black light lamp, irradiation for 30 s"}, "[16]": {"settings": "black light lamp, irradiation for 3 min"}, "[17]": {"settings": "mercury lamp, irradiation for 30 s"}, "[18]": {"settings": "mercury lamp, irradiation for 3 min"}},
  "note": "Read-outs that look alike come from different tables or passages of the source.",
  "data": [
    {"smiles": "Cc1cc(N(C)C)cc2[s+]c3cc(N(C)C)cc(C)c3nc12.[Cl-]", "note": "[dimethyl methylene blue, 3,7-bis(dimethylamino)-1,9-dimethyldiphenothiazin-5-ium chloride]", "values": [
      {"measurement": "inhibition of cell growth", "setting": "Klebsiella pneumoniae; about 10^4 cfu", "result": "significant inhibition of cell growth"},
      {"measurement": "cell numbers", "setting": "Klebsiella pneumoniae; after 5 min of irradiation", "result": "noticeable reduction of cell numbers"},
      {"measurement": "reduction of cell numbers", "setting": "Klebsiella pneumoniae; irradiation period of 10 min", "result": "further increase"},
      {"measurement": "dye released from stained textile pieces", "setting": "single immersion with acetone, acetic acid, and ethanol, data not shown", "result": "Trace amounts"},
      {"measurement": "dye released from stained textile pieces", "setting": "two cycles of immersion in 99% acetone, 99% acetic acid, 1 M NaOH, 99% ethanol, stained with 100 mg/l", "result": "No dye"},
      {"measurement": "cell growth", "setting": "Staphylococcus aureus [1]; LED 623 nm", "result": "no cell growth could be detected"}
    ]},
    {"smiles": "CN(C)c1ccc2nc3ccc(N(C)C)cc3[s+]c2c1.[Cl-]", "note": "[methylene blue, 3,7-bis(dimethylamino)-phenothiazin-5-ium chloride]", "values": [
      {"measurement": "cfu calculated per ml cell culture", "setting": "[2]; [7]", "result": "1.0 × 10^5 cfu/ml"},
      {"measurement": "cfu calculated per ml cell culture", "setting": "[2]; [8]", "result": "1.0 × 10^5 cfu/ml"},
      {"measurement": "cfu calculated per ml cell culture", "setting": "[2]; [9]", "result": "1.1 × 10^8 cfu/ml"},
      {"measurement": "cfu calculated per ml cell culture", "setting": "[2]; [10]", "result": "1.0 × 10^5 cfu/ml"},
      {"measurement": "growth inhibition", "setting": "[2]; [11]", "result": "almost complete"},
      {"measurement": "colonies (cfu) after contact sampling", "setting": "[2]; [12]", "result": "two colonies"},
      {"measurement": "growth after contact sampling without irradiation", "setting": "[2]; [13]", "result": "lawn of bacteria"},
      {"measurement": "microbial growth upon irradiation", "setting": "Candida albicans [3]", "result": "significant reduction of microbial growth"},
      {"measurement": "cfu per ml", "setting": "Staphylococcus aureus [4]; black light lamp, irradiation for 30 s, dilution 10^−5", "result": "1.2 × 10^8 cfu/ml"},
      {"measurement": "cfu per ml", "setting": "Staphylococcus aureus [4]; black light lamp, irradiation for 3 min, dilution 10^−5", "result": "1.5 × 10^7 cfu/ml"},
      {"measurement": "colony forming units obtained", "setting": "Staphylococcus aureus [4]", "result": 177, "unit": "cfu"},
      {"measurement": "colonies detected", "setting": "Staphylococcus aureus [4]; [14]", "result": "one colony"},
      {"measurement": "cfu per ml", "setting": "Staphylococcus aureus [4]; irradiation 2 min with LED1, 620-640 nm, dilution 10^−5", "result": "1.2×10^7 cfu/ml"},
      {"measurement": "cfu per ml", "setting": "Staphylococcus aureus [4]; irradiation 2 min with LED2, 620-640 nm, dilution 10^−5", "result": "2.0×10^6 cfu/ml"},
      {"measurement": "colonies detected", "setting": "Staphylococcus aureus [4]; black light lamp 350-370 nm, dilution 10^−5", "result": 15},
      {"measurement": "colonies detected", "setting": "Staphylococcus aureus [4]; mercury lamp 515-560 nm, dilution 10^−5", "result": "No colonies"},
      {"measurement": "cfu per ml", "setting": "Staphylococcus aureus [4]; mercury lamp, irradiation for 30 s, dilution 10^−5", "result": "2.1 × 10^7 cfu/ml"},
      {"measurement": "cfu per ml", "setting": "Staphylococcus aureus [4]; mercury lamp, irradiation for 3 min, dilution 10^−5", "result": "1.0 × 10^5 cfu/ml"},
      {"measurement": "cfu per ml", "setting": "Candida albicans [5]; [15]", "result": "2.7 × 10^7 cfu/ml*"},
      {"measurement": "cfu per ml", "setting": "Candida albicans [5]; [16]", "result": "2.3 × 10^7 cfu/ml*"},
      {"measurement": "cfu per ml", "setting": "Candida albicans [5]; [17]", "result": "2.3 × 10^7 cfu/ml*"},
      {"measurement": "cfu per ml", "setting": "Candida albicans [5]; [18]", "result": "2.2 × 10^7 cfu/ml*"},
      {"measurement": "cfu per ml", "setting": "[6]; [15]", "result": "2.9 × 10^7 cfu/ml"},
      {"measurement": "cfu per ml", "setting": "[6]; [16]", "result": 0, "unit": "cfu/ml"},
      {"measurement": "cfu per ml", "setting": "[6]; [17]", "result": "1.4 × 10^7 cfu/ml"},
      {"measurement": "cfu per ml", "setting": "[6]; [18]", "result": 0, "unit": "cfu/ml"},
      {"measurement": "cfu calculated per ml cell culture", "setting": "Staphylococcus aureus [1]; [7]", "result": 0, "unit": "cfu/ml"},
      {"measurement": "cfu calculated per ml cell culture", "setting": "Staphylococcus aureus [1]; [8]", "result": 0, "unit": "cfu/ml"},
      {"measurement": "cfu calculated per ml cell culture", "setting": "Staphylococcus aureus [1]; [9]", "result": "1.7 × 10^8 cfu/ml"},
      {"measurement": "cfu calculated per ml cell culture", "setting": "Staphylococcus aureus [1]; [10]", "result": 0, "unit": "cfu/ml"},
      {"measurement": "number of colonies upon irradiation", "setting": "Staphylococcus aureus [1]; irradiation 2 min with LED1, 620-640 nm", "result": "significant reduction of the number of colonies"},
      {"measurement": "number of colonies upon irradiation", "setting": "Staphylococcus aureus [1]; irradiation 2 min with LED2, 620-640 nm", "result": "significant reduction of the number of colonies"},
      {"measurement": "growth inhibition", "setting": "Staphylococcus aureus [1]; [11]", "result": "complete"},
      {"measurement": "colonies (cfu) after contact sampling", "setting": "Staphylococcus aureus [1]; [12]", "result": "no colonies"},
      {"measurement": "growth after contact sampling without irradiation", "setting": "Staphylococcus aureus [1]; [13]", "result": "lawn of bacteria"}
    ]},
    {"smiles": "CCNc1cc2[s+]c3cc(NCC)c(C)cc3nc2cc1C.[Cl-]", "note": "[new methylene blue, 3,7-bis(ethylamino)-2,8-dimethylphenaza-thionium chloride]", "values": [
      {"measurement": "cell growth", "setting": "Staphylococcus aureus [1]; LED 623 nm", "result": "only a small reduction of cell growth"},
      {"measurement": "reduction of cell growth", "setting": "Staphylococcus aureus [1]; LED 623 nm, irradiation for 2 min and 5 min, data not shown", "result": "more than 50%"}
    ]},
    {"smiles": "Cc1cc2nc3ccc(=[N+](C)C)cc-3sc2cc1N.[Cl-]", "note": "[toluidine blue]", "values": [
      {"measurement": "colony forming units obtained", "setting": "Staphylococcus aureus [4]", "result": 89, "unit": "cfu"},
      {"measurement": "colonies detected", "setting": "Staphylococcus aureus [4]; [14]", "result": "no colony"},
      {"measurement": "cfu calculated per ml cell culture", "setting": "Staphylococcus aureus [1]; [7]", "result": "9.0 × 10^4 cfu/ml"},
      {"measurement": "cfu calculated per ml cell culture", "setting": "Staphylococcus aureus [1]; [8]", "result": "5.0 × 10^4 cfu/ml"},
      {"measurement": "cfu calculated per ml cell culture", "setting": "Staphylococcus aureus [1]; [9]", "result": "8.9 × 10^6 cfu/ml"},
      {"measurement": "cfu calculated per ml cell culture", "setting": "Staphylococcus aureus [1]; [10]", "result": 0, "unit": "cfu/ml"}
    ]}
  ]
}
